Measured values as given in patent publication US20050267204A1, “Synergistic gold-containing compositions” (MEDICAL INNOVATIONS LIMITED, priority 1996, published 2005).
“Also recorded” adds a separate entry of the source. Like-named read-outs stand apart in the source and are kept apart here.

Legend:
[1] = system: TPA-induced epidermal hyperplasia; assay: Inhibition of TPA-induced epidermal hyperplasia (epidermal thickness) on back skin of mice; format: in vivo, BALB/c mice; settings: for Emax: read-out: Emax (% inhibition); for Relative potency: hydrocortisone acetate = 1.0; for Synergistic factor: IC50 without auranofin divided by IC50 with auranofin (0.2%); for Synergism with auranofin, epidermal hyperplasia (in words): auranofin (0.2%) co-administered; for Percent increase in the apparent potency of the steroid: in presence of auranofin (0.2%)
Description: (§1) The mice were housed in stainless steel cages, 6 mice per cage under normal laboratory conditions (room temperature at about 22° C.) at least 7 days before the experiments for acclimatization. Food and water were allowed ad libitum throughout the experiment period. The backs of the mice were shaved with an electric clipper two days before each treatment and only those mice showing no hair regrowth were used (i.e., the mice in the resting phase of the hair growth cycle were selected). During treatment, the mice were held with their tails and put on top of the cage so that they grasped the cage and rested there. The solutions were applied to an area approximately 2 cm×2 cm on the shaved back of the mice by using a “Pipetman” to apply the solution. If auranofin ointment or ointment base was applied, the amount was standardized by using a microspatula which was crimped at one end, the ointment was then put into the ridge and the excess removed by means of another microspatula and applied sparingly twice a day. After a fixed time, the mice were killed routinely by cervical dislocation between 9 a.m. and 11 a.m. to avoid variations due to circadian rhythms, and an area (1 cm×1 cm) was excised from the centre of the treated area by scalpel and scissors. The rest of the tissues were disposed by combustion. The tissues were then fixed, embedded, sectioned and stained.
Epidermal thickness was determined by image analysis. This image analysis system was a minicomputer (Tracor Northern TN8500) attached to a light microscope (Zeiss Axioplan) and a camcorder (Sony DXC-3000P). Sections were taken from each tissue block and 20 measurements were taken at fixed intervals from each section. The average value for the 20 measurements was obtained and entered as one value for each mouse. The mean and SEM for the six mice in each treatment group were calculated.
(§2) The percent inhibition of drug on TPA-induced skin responses (i.e., epidermal hyperplasia, inflammatory cell infiltration and skin-fold thickness) was calculated by using the following formula: [formula]
(§3) This provides estimates of (a) the potency, (b) the efficacy or maximum effect (Emax) and the slope of the log concentration-response curve by using Hill coefficient (γ). The Hill Equation may be expressed as follows: [formula] where IC50 is the drug concentration producing 50% of the maximal response and Emax refers to the maximal effect produced by the drug and is also termed efficacy. Efficacy is the measurement of the intrinsic ability of a drug to initiate a response once it occupies receptor sites. […] The Hill coefficient (γ) measures the slope of the dose-effect curve which can be markedly influenced by the shape of the curve that describes the binding of the drug to the receptor. For many drugs, y lies between 0.6 and 1.5. […] On the other hand, when γ is less than 1, with a shallow hyperbolic concentration effect relationship, the activity occurs over a wide range of drug levels.
(§4) In the present study, concentration-response curves were obtained for a series of corticosteroids. In these experiments, curve fitting was accomplished using a computer programme called “The Scientist” (MicroMath Scientific Software, Salt Lake City, Utah, USA.) in which the parameters, Emax, IC50 and Hill coefficient (γ) for each steroids were estimated by using non-linear regression and least square fits.
Mice were divided into treatment groups. TPA and corticosteroids were premixed to the concentrations required and applied to the backs of mice immediately. For those steroids not very soluble in acetone (i.e., betamethasone, dexamethasone, hydrocortisone and hydrocortisone acetate), the drugs were dissolved in 100 μL dimethylformamide before further dilution with acetone. The efficacy of corticosteroids in inhibiting epidermal hyperplasia, inflammatory cell infiltration and skin-fold thickness was assessed as described previously. Concentration-response curves were determined after computer-fitting of data.

[2] = system: TPA-induced inflammatory cell infiltration into the dermis; assay: Inhibition of TPA-induced inflammatory cell infiltration into the dermis of mice; format: in vivo, BALB/c mice; settings: for IC50 / Emax: Mus musculus; for Emax: read-out: Emax (% inhibition); for Relative potency: hydrocortisone acetate = 1.0; for Synergistic factor: IC50 without auranofin divided by IC50 with auranofin (0.2%)
Description: as §1
Infiltration of inflammatory cells was determined by the same image analysis system using the section taken from the block of mouse skin embedded in paraffin wax or Spurr's resin and stained with haematoxylin and eosin or toluidine blue respectively. For each section, 10 fields, unless otherwise stated, were chosen randomly and the cell density per mm^2 of field determined. The average value for the 10 fields was obtained and entered as one value for each mouse. The mean and SEM for the six mice in each treatment group were calculated.
The measurement of the inflammatory cell infiltration included the background values which included other materials in the dermis stained in the same way.
as §2, §3, §4
Mice were divided into treatment groups. TPA and corticosteroids were premixed to the concentrations required and applied to the backs of mice immediately.

[3] = Mus musculus, from Hill equation, concentration that produced 50% of Emax, read-out: IC50 for inhibition of epidermal thickening (M × 10^−4)
[4] = Mus musculus, read from concentration-response curve, concentration that inhibited 50% of the TPA effect, read-out: IC50 for inhibition of epidermal thickening (M × 10^−4)
[5] = Mus musculus, topical, Hill equation fit, means ± SD, steroid premixed with TPA, topical, read-out: IC50 (M × 10^−4)
[6] = Mus musculus, with auranofin (0.2%), from computer fitted graph, means ± SD, read-out: Apparent IC50 (M × 10^−4) with auranofin
[7] = Mus musculus, without auranofin, from computer fitted graph, means ± SD, read-out: Apparent IC50 (M × 10^−4) without auranofin
[8] = Mus musculus, Hill equation fit, means ± SD, steroid premixed with TPA, topical
[9] = from Hill equation, concentration that produced 50% of Emax, read-out: IC50 for inhibition of inflammatory cell infiltration in the dermis (M × 10^−4)
[10] = read from concentration-response curve, concentration that inhibited 50% of the TPA effect, read-out: IC50 for inhibition of inflammatory cell infiltration in the dermis (M × 10^−4)
[11] = topical, Hill equation fit, means ± SD, steroid premixed with TPA, topical, read-out: IC50 (M × 10^−4)
[12] = with auranofin (0.2%), from computer fitted graph, means ± SD, read-out: Apparent IC50 (M × 10^−4) with auranofin
[13] = without auranofin, from computer fitted graph, means ± SD, read-out: Apparent IC50 (M × 10^−4) without auranofin
[14] = Hill equation fit, means ± SD, steroid premixed with TPA, topical

IC50 [1, 3] | IC50 [1, 4] | IC50 [1, 5] | IC50 [2, 9] | IC50 [2, 10] | IC50 [2, 11] | Compound | Relative potency ([1]; from Hill-equation IC50) | Relative potency ([1]; from IC50 read from curve) | Relative potency ([2]; from Hill-equation IC50) | Relative potency ([2]; from IC50 read from curve) | Potency for inhibition of TPA-induced inflammatory cell infiltration (in words) ([2]; ranking in text) | Emax [1, 8] | Emax [2, 14] | other results
– | – | – | – | – | – | CCC(=O)OCC(=O)[C@@]1(OC(=O)CC)[C@H](C)C[C@H]2[C@H]3[C@H]([C@@H](O)C[C@@]21C)[C@@]1(C)C=CC(=O)C=C1C[C@H]3Cl [Alclometasone dipropionate] | 41.20 | 70.0 | 241.66 | 183.33 | medium to strong potencies | – | – | IC50 ([1]; Mus musculus, read-out: IC50 for inhibition of epidermal thickening (M × 10^−4), from Hill equation, concentration that produced 50% of Emax): 89 µM; IC50 ([1]; Mus musculus, read-out: IC50 for inhibition of epidermal thickening (M × 10^−4), read from concentration-response curve, concentration that inhibited 50% of the TPA effect): 100 µM; Emax ([1]; Mus musculus, topical): 96.6 ± 7.9%; IC50 ([1]; Mus musculus, topical, read-out: IC50 (M × 10^−4), Hill equation fit, means ± SD, steroid premixed with TPA, topical): 89 ± 30 µM; Potency for inhibition of TPA-induced epidermal hyperplasia (in words) ([1]; ranking in text): medium to strong potencies; IC50 ([2]; read-out: IC50 for inhibition of inflammatory cell infiltration in the dermis (M × 10^−4), from Hill equation, concentration that produced 50% of Emax): 32 µM; IC50 ([2]; read-out: IC50 for inhibition of inflammatory cell infiltration in the dermis (M × 10^−4), read from concentration-response curve, concentration that inhibited 50% of the TPA effect): 60 µM; Emax ([2]; topical): 82.1 ± 5.65%; IC50 ([2]; topical, read-out: IC50 (M × 10^−4), Hill equation fit, means ± SD, steroid premixed with TPA, topical): 32 ± 9 µM
– | – | – | – | – | – | CC[PH](CC)(CC)[Au][S][C@@H]1O[C@H](COC(C)=O)[C@@H](OC(C)=O)[C@H](OC(C)=O)[C@H]1OC(C)=O [Auranofin, (1-thio-p-D-glucopyranose 2,3,4,6-tetraacetato-S)-(triethylphosphine)-Au(I)] | – | – | – | – | – | – | – | Inhibition of TPA-induced epidermal hyperplasia ([1]; auranofin (0.2%) alone, FIG. 1): about 10%
81 µM | 140 µM | 81 ± 36 µM | 29 µM | 40 µM | 29 ± 6 µM | CCC(=O)OCC(=O)[C@@]1(OC(=O)CC)[C@@H](C)C[C@H]2[C@@H]3CCC4=CC(=O)C=C[C@]4(C)[C@@]3(F)[C@@H](O)C[C@@]21C [Betamethasone dipropionate, betamethasone dipropionate] | 45.27 | 50.0 | 266.66 | 275.0 | – | 95.6 ± 6.55% | 90.8 ± 3.71% | Potency for inhibition of TPA-induced epidermal hyperplasia (in words) [1]: medium to strong potencies; also recorded: strong to very strong potencies; Inhibition of TPA effect (epidermal hyperplasia) ([1]; 1×10^−5 M combined with auranofin (0.2%), FIG. 1): about 65%; Synergistic factor [1]: 56.0; IC50 [1, 6]: 2.5 ± 0.3 µM; IC50 [1, 7]: 140 ± 36 µM; inhibition at 10 µM ([1]; Mus musculus, 1×10^−5 M alone, FIG. 1, read-out: Inhibition of TPA effect (epidermal hyperplasia)): ~20%; Ratio of concentration without auranofin to concentration with auranofin for the same effect ([1]; about 65% inhibition level): 50 times; Synergism with auranofin, epidermal hyperplasia (in words) [1]: massive synergism; Percent increase in the apparent potency of the steroid [1]: 5,600%; Concentration that, in the absence of auranofin, produced the same effect as the combination ([1]; same effect as 1×10^−5 M with auranofin (0.2%)): 500 µM; Potency for inhibition of TPA-induced inflammatory cell infiltration (in words) [2]: medium to strong potencies; also recorded: strong to very strong anti-inflammatory effect; Synergistic factor [2]: 4.44; IC50 [2, 12]: 9 ± 1.6 µM; IC50 [2, 13]: 40 ± 6 µM; Increase in apparent IC50 ([2]; in presence of auranofin (0.2%), Table 10): 400-500%
15 µM | 22 µM | 15 ± 2 µM | 29 µM | 65 µM | 29 ± 3 µM | CCCCC(=O)O[C@]1(C(=O)CO)[C@@H](C)C[C@H]2[C@@H]3CCC4=CC(=O)C=C[C@]4(C)[C@@]3(F)[C@@H](O)C[C@@]21C [Betamethasone valerate, betamethasone valerate] | 244.47 | 318.18 | 266.66 | 169.23 | strong to very strong anti-inflammatory effect | 82.2 ± 2.84% | 73.5 ± 1.76% | Potency for inhibition of TPA-induced epidermal hyperplasia (in words) [1]: strong to very strong potencies; also recorded: most potent agent
2720 µM | 5000 µM | 1380 µM | 1310 µM | 2100 µM | 1310 ± 165 µM | C[C@H]1C[C@H]2[C@@H]3CCC4=CC(=O)C=C[C@]4(C)[C@@]3(F)[C@@H](O)C[C@]2(C)[C@@]1(O)C(=O)CO [Betamethasone, betamethasone] | 1.35 | 1.40 | 5.89 | 5.23 | – | 94.2 ± 7.33% | 74.5 ± 3.29% | –
126 µM | 200 µM | 126 ± 44 µM | 444 µM | 410 µM | 444 ± 102 µM | C[C@@H]1C[C@H]2[C@@H]3CCC4=CC(=O)C=C[C@]4(C)[C@@]3(F)[C@@H](O)C[C@]2(C)[C@@]1(O)C(=O)CO [Dexamethasone] | 29.10 | 35.0 | 17.42 | 26.83 | – | 90.7 ± 5.72% | 99% | –
39 µM | 21 µM | 39 ± 14 µM | 16 µM | 25 µM | 16 ± 2 µM | CC1(C)O[C@@H]2C[C@H]3[C@@H]4C[C@H](F)C5=CC(=O)C=C[C@]5(C)[C@@]4(F)[C@@H](O)C[C@]3(C)[C@]2(C(=O)CO)O1 [Fluocinolone acetonide, fluocinolone acetonide] | 94.03 | 333.33 | – | 440 | most potent agent | 89.6 ± 6.93% | 79.6 ± 2.41% | Synergistic factor [1]: 13.13; IC50 [1, 6]: 1.6 ± 0.2 µM; IC50 [1, 7]: 21 ± 14 µM; Synergism with auranofin, epidermal hyperplasia (in words) [1]: massive synergism; Percent increase in the apparent potency of the steroid [1]: 1,300%; Potency for inhibition of TPA-induced epidermal hyperplasia (in words) ([1]; ranking in text): strong to very strong potencies; Synergistic factor [2]: 2.27; IC50 [2, 12]: 11 ± 1.3 µM; IC50 [2, 13]: 25 ± 0.2 µM; Potency for inhibition of TPA-induced inflammatory cell infiltration (in words) ([2]; ranking in text, listed as fluocinolone acetonide): strong to very strong anti-inflammatory effect
